Inhibition and IC50 data for 2 compounds are collected here from ChEMBL document CHEMBL1133304, “Design and synthesis of potent thiol-based inhibitors of endothelin converting enzyme-1” (Bioorg Med Chem Lett, 2000).

Experiment [1] concerns Rattus norvegicus. Description: Intravenously injected compound (0.3 nmol/kg) was tested in rat for the inhibitory activity against endothelin-1 (ET-1) pressor response after 8 hour. In kind it is functional.
Experiment [2] deals with Rattus norvegicus. Description: Intravenously injected compound (0.3 nmol/kg) was tested in rat for the inhibitory activity against endothelin-1 (ET-1) pressor response after 24 hour. In kind it is functional.
For experiment [3], the target named is T1, Endothelin-converting enzyme 1 (Homo sapiens, UniProt P42892).
T1 sequence (P42892 whole entry): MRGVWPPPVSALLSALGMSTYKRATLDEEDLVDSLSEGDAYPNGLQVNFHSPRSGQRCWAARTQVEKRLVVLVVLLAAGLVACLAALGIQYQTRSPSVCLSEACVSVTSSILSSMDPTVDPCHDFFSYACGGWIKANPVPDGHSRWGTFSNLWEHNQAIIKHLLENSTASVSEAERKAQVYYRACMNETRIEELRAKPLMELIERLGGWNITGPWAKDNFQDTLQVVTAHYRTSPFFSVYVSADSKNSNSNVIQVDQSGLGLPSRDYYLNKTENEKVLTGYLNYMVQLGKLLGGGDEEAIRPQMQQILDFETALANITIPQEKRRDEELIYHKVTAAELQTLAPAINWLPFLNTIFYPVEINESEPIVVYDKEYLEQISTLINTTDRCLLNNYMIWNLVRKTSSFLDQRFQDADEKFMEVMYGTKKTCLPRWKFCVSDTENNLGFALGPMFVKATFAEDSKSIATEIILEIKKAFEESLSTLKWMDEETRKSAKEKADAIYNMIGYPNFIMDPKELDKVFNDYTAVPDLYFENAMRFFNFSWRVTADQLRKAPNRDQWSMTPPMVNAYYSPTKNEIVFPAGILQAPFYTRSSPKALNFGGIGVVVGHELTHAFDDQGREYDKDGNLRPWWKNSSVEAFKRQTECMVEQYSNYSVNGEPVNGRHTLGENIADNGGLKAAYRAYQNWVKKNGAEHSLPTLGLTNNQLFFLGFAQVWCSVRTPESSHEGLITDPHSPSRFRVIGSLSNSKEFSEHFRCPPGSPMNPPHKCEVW
Briefly: In vitro inhibition of human Endothelin converting Enzyme-1 activity.

Take `CCC[C@H](SC(C)=O)C(=O)NC1(C(=O)N[C@@H](Cc2ccc(-c3ccccc3)cc2)C(=O)OC)CCCC1`: the results for the Inhibition with Rattus norvegicus [1] and in the experiment on Rattus norvegicus [2] were 75% and 30%, respectively.
As for `CC(C)[C@H](S)C(=O)NC1(C(=O)N[C@@H](Cc2ccc(-c3ccccc3)cc2)C(=O)O)CCCC1`, in experiment [3], the IC50 (in general, the point on the concentration scale where inhibition reaches its midpoint) was 77 nM.
